In brackets after ≈: the same amount, converted by molar mass. Like-named read-outs stand apart in the source and are kept apart here. Bridge positions count the residues as written; N and C are the ends. Square brackets hold non-standard residues; d marks the D form. Peptide text beside a SMILES is read from it. R5 = C=CCCC[C@@](C)(N)C(=O)O
What was measured:
[1] = tested on: NDM1 K. pneumoniae; assay: microbe, parasite or virus in culture; format: cell-based, Klebsiella pneumoniae; conditions: for TP4-3 and meropenem combined MIC: MIC of each agent in combination
[2] = tested on: MDR A. baumannii 3618; assay: Checkerboard microdilution assay (FICI); format: cell-based, Acinetobacter baumannii; conditions: for TP4-3 and meropenem combined MIC: MIC of each agent in combination
Method: (§1) The FICI was measured using a standard checkerboard microdilution assay ([57]). Two-fold dilutions of antibiotics were made across the x axis, and two-fold peptide dilutions were made across the y axis. Next, bacteria were added at 5 × 10^5 CFU/well (A. baumannii), followed by incubation at 37 ± 2°C for 16 to 20 h. FIC indices were calculated according to the following equations: FICI = FIC1 + FIC2; FIC1 = (MIC12 combined)/MIC1; FIC2 = (MIC12 combined)/MIC2. The combined efficacy was estimated as follows: FICI ≤ 0.5, synergistic; 0.5 to 1, additive; 1 to 2, indifferent; ≥2, antagonistic.

[3] = tested on: MDR A. baumannii 1033; assay: Checkerboard microdilution assay (FICI); format: cell-based, Acinetobacter baumannii; conditions: for TP4-3 and meropenem combined MIC: MIC of each agent in combination
Method: as §1

[4] = tested on: MDR A. baumannii 2088; assay: Checkerboard microdilution assay (FICI); format: cell-based, Acinetobacter baumannii; conditions: for TP4-3 and meropenem combined MIC: MIC of each agent in combination
Method: as §1

[5] = tested on: MDR A. baumannii 2998; assay: Checkerboard microdilution assay (FICI); format: cell-based, Acinetobacter baumannii; conditions: for TP4-3 and meropenem combined MIC: MIC of each agent in combination
Method: as §1

[6] = tested on: MDR A. baumannii 2997; assay: Checkerboard microdilution assay (FICI); format: cell-based, Acinetobacter baumannii; conditions: for TP4-3 and meropenem combined MIC: MIC of each agent in combination
Method: as §1

[7] = tested on: Acinetobacter baumannii; assay: microbe, parasite or virus in culture; format: cell-based; conditions: for MBC: read-out: MBC; for MIC: read-out: MIC
Method: The antimicrobial assay was performed according to a modified National Committee for Clinical Laboratory Standards (NCCLS) protocol ([41], [42]). Briefly, 5 × 10^5 CFU/mL bacterial cells were treated with various peptide concentrations and incubated at 37 ± 2°C for 16 to 20 h. The lowest concentration with clear wells was recorded as the MIC for each test molecule. The clear wells were further plated in Mueller-Hinton agar (MHA) plates, followed by incubation overnight at 37 ± 2°C. After plating, the lowest concentration at which no growth was observed was recorded as the MBC. For the serum sensitivity assay, the antimicrobial activity of the peptides was tested in medium containing 50% human serum ([43], [44]). The antimicrobial assay was performed in the presence of physiological ions and glucose. The test media were supplemented with MgCl2 (1 mM), CaCl2 (2 mM), NaCl (150 mM), KCl (4.5 mM), NH4Cl (6 μM) ([45], [46]), or glucose (0.2%) ([47]), followed by routine antimicrobial assay as described previously. For the pH sensitivity assay, the antimicrobial assay was performed in media adjusted to pH values ranging from 4 to 12. To estimate the effects of temperature on antimicrobial activity, the peptide was incubated for 1 h at temperatures ranging from 40 to 100°C ([48]), followed by the antimicrobial assay as described above.

[8] = tested on: MDR A. baumannii 921; assay: microbe, parasite or virus in culture; format: cell-based, Acinetobacter baumannii; conditions: for TP4-3 and meropenem combined MIC: MIC of each agent in combination
Method: as §1

[9] = tested on: MDR A. baumannii 1702; assay: microbe, parasite or virus in culture; format: cell-based, Acinetobacter baumannii; conditions: for TP4-3 and meropenem combined MIC: MIC of each agent in combination
Method: as §1

[10] = tested on: MDR A. baumannii 1019; assay: microbe, parasite or virus in culture; format: cell-based, Acinetobacter baumannii; conditions: for TP4-3 and meropenem combined MIC: MIC of each agent in combination
Method: as §1

[11] = tested on: MDR A. baumannii 2962; assay: microbe, parasite or virus in culture; format: cell-based, Acinetobacter baumannii; conditions: for TP4-3 and meropenem combined MIC: MIC of each agent in combination
Method: as §1

[12] = tested on: MDR A. baumannii 1607; assay: microbe, parasite or virus in culture; format: cell-based, Acinetobacter baumannii; conditions: for TP4-3 and meropenem combined MIC: MIC of each agent in combination
Method: as §1

[13] = tested on: MDR A. baumannii 2982; assay: microbe, parasite or virus in culture; format: cell-based, Acinetobacter baumannii; conditions: for TP4-3 and meropenem combined MIC: MIC of each agent in combination
Method: as §1

[14] = tested on: A. baumannii; assay: Bacterial killing kinetics; format: cell-based, Acinetobacter baumannii; conditions: at respective MBC
Method: Mid-log-phase A. baumannii (5 × 10^5 CFU/mL) bacterial cells were treated with the test candidates at appropriate bactericidal concentrations, followed by incubation at 37°C. The treated bacterial cells were plated in MHA to determine the bacterial killing rate as a function of time ([52]).

[15] = tested on: A. baumannii; assay: Serial passage (induced resistance) assay; format: cell-based, Acinetobacter baumannii; conditions: after serial passage for 15 cycles
Method: The experimental procedure was performed according to the MIC protocol for A. baumannii described above. Subsequently, bacterial samples from sub-MIC wells were passaged, and the MIC was estimated again. This process was repeated for 15 cycles, and the change in MIC over […] was reported ([23]).

[16] = tested on: A. baumannii biofilm; assay: Biofilm inhibition assay; format: cell-based, Acinetobacter baumannii; conditions: 0.5× to 4× MIC
Method: (i) Biofilm inhibition assay. Fifty μL of 2 × 10^6 CFU/mL A. baumannii bacterial suspension was added to a 96-well plate. Then, 50 μL of peptide/drug (various concentrations) was added, and the plate was incubated for 24 h. The residual solution was removed, and wells were washed, followed by treatment with 100% methanol for 15 min at room temperature. The methanol was then removed, and the wells were allowed to dry at room temperature. Next, the wells were incubated with 100 μL of 0.02% crystal violet for 30 min. After the incubation, the wells were washed with distilled water and dried for an appropriate length of time. Finally, 100 μL of 33% acetic acid was added to the wells for 1 h, followed by reading the absorbance at 595 nm ([55]).

[17] = read-out: Single drug treatment MIC

CC[C@H](C)[C@H](NC(=O)[C@@H](NC(=O)[C@@H](N)Cc1ccccc1)[C@@H](C)CC)C(=O)N[C@]1(C)CCCC=CCCC[C@](C)(C(=O)NCC(=O)N[C@@H](CC(C)C)C(=O)N[C@@H](Cc2ccccc2)C(=O)N[C@@H](CCCCN)C(=O)N[C@@H](CCCCN)C(=O)N[C@@H](CCCCN)C(=O)N[C@@H](C)C(=O)NCC(=O)N[C@@H](C)C(=O)N[C@]2(C)CCCC=CCCC[C@](C)(C(=O)N[C@H](C(=O)N[C@@H](CCCCN)C(=O)N[C@@H](CCCCN)C(=O)O)[C@@H](C)CC)NC(=O)[C@H](CCCCN)NC(=O)[C@H](CCCCN)NC(=O)[C@H](CCCCN)NC2=O)NC(=O)[C@H](CO)NC(=O)[C@H](CCCCN)NC(=O)[C@H](CCCCN)NC1=O [TP4-3] (H-FII[R5]KKS[R5]GLFKKKAGA[R5]KKK[R5]IKK-OH; staple 4-8, 18-22; N-terminus and C-terminus assumed)
TP4-3 and meropenem combined MIC ([1]; TP4-3 and D): 6.25 µM
TP4-3 and meropenem combined MIC ([1]; TP4-3 and M): 6.25 µM
MIC ([1]; NDM1, read-out: Single drug treatment MIC): 25 µM (≈ 72.3 µg/mL)
TP4-3 and meropenem combined MIC ([2]; TP4-3 and D): 3.13 µM
TP4-3 and meropenem combined MIC ([2]; TP4-3 and M): 3.13 µM
MIC [2, 17]: 12.5 µM
TP4-3 and meropenem combined MIC ([3]; TP4-3 and D): 3.13 µM
TP4-3 and meropenem combined MIC ([3]; TP4-3 and M): 3.13 µM
MIC [3, 17]: 12.5 µM
TP4-3 and meropenem combined MIC ([4]; TP4-3 and D): 3.13 µM
TP4-3 and meropenem combined MIC ([4]; TP4-3 and M): 3.13 µM
MIC [4, 17]: 6.25 µM
TP4-3 and meropenem combined MIC ([5]; TP4-3 and D): 3.13 µM
TP4-3 and meropenem combined MIC ([5]; TP4-3 and M): 3.13 µM
MIC [5, 17]: 6.25 µM
TP4-3 and meropenem combined MIC ([6]; TP4-3 and D): 3.13 µM
TP4-3 and meropenem combined MIC ([6]; TP4-3 and M): 3.13 µM
MIC [6, 17]: 6.25 µM
reduction of activity ([7]; 12 h pretreatment in 50% human serum): 2 fold
reduction of activity ([7]; 24 h pre-incubation in 50% human serum): 4 fold
reduction of activity (MBC) ([7]; in pH 6): 4 fold
lower bactericidal potency ([7]; media supplemented with CaCl2): ≤ 8 fold
lower bactericidal potency ([7]; media supplemented with MgCl2): up to 4 fold
lowered bactericidal potency (MBC) ([7]; media supplemented with NaCl, KCl, or NH4Cl vs non-supplemented medium): up to 2 fold
MBC ([7]; pH 6): 12.5 µM (≈ 36.1 µg/mL)
MIC ([7]; pH 6): 12.5 µM (≈ 36.1 µg/mL)
MBC ([7]; pH 7.4): 3.13 µM (≈ 9.05 µg/mL)
MIC ([7]; pH 7.4): 3.13 µM (≈ 9.05 µg/mL)
MBC ([7]; pH 8): 3.13 µM (≈ 9.05 µg/mL)
MIC ([7]; pH 8): 3.13 µM (≈ 9.05 µg/mL)
MBC ([7]; pH 10): 3.13 µM (≈ 9.05 µg/mL)
MIC ([7]; pH 10): 0.78 µM (≈ 2.25 µg/mL)
MIC ([8]; MDR 921, read-out: Single drug treatment MIC): 6.25 µM
TP4-3 and meropenem combined MIC ([8]; TP4-3 and D): 3.13 µM
TP4-3 and meropenem combined MIC ([8]; TP4-3 and M): 0.78 µM
MIC ([9]; MDR 1702, read-out: Single drug treatment MIC): 6.25 µM
TP4-3 and meropenem combined MIC ([9]; TP4-3 and D): 3.13 µM
TP4-3 and meropenem combined MIC ([9]; TP4-3 and M): 3.13 µM
MIC ([10]; MDR 1019, read-out: Single drug treatment MIC): 12.5 µM
TP4-3 and meropenem combined MIC ([10]; TP4-3 and D): 3.13 µM
TP4-3 and meropenem combined MIC ([10]; TP4-3 and M): 3.13 µM
MIC ([11]; MDR 2962, read-out: Single drug treatment MIC): 6.25 µM
TP4-3 and meropenem combined MIC ([11]; TP4-3 and D): 3.13 µM
TP4-3 and meropenem combined MIC ([11]; TP4-3 and M): 3.13 µM
MIC ([12]; MDR 1607, read-out: Single drug treatment MIC): 6.25 µM
TP4-3 and meropenem combined MIC ([12]; TP4-3 and D): 3.13 µM
TP4-3 and meropenem combined MIC ([12]; TP4-3 and M): 3.13 µM
MIC ([13]; MDR 2982, read-out: Single drug treatment MIC): 6.25 µM
TP4-3 and meropenem combined MIC ([13]; TP4-3 and D): 3.13 µM
TP4-3 and meropenem combined MIC ([13]; TP4-3 and M): 3.13 µM
time to clear the entire bacterial load [14]: ≤ 8 h
net increase in the MIC [15]: 5 fold
inhibition of biofilm (biomass) formation [16]: substantial inhibition of biomass formation
